Series [1] relates to K562 human chronic myelogenous leukaemia cell line. Kind of series: Test (a): growth inhibitory activity, MTT assay. The format is cell-based. The conditions noted are these: 120 h, K562 cells, 5 days incubation, read-out: IC50 - Assay (a), concentration to inhibit 50% cell proliferation. The protocol:
The compounds of the present invention were tested in test (a) for growth inhibitory activity (IC50) against the K562 human chronic myelogenous leukaemia cell line using a MTT assay generally as described in Tada, H., Shiho, O., Kuroshima, K., Koyama, M., Tsukamoto, K., J. Immunol. Methods 1986, 93, 157 and Edmondson, J. M., Armstrong, L. S., Martinez, A. O., J. Tissue Culture Methods 1988, 11, 15. Cells were cultured in Roswell Park Memorial Institute (RPMI) medium, free of antibiotics and containing L-glutamine ([…]), supplemented with 10% foetal calf serum. A single suspension of the K562 cell line was tested from an exponentially growing culture. The cells were counted using a haemocytometer, and diluted to 5×10^3/ml.
A compound of the present invention was dissolved in dimethylsulfoxide (DMSO) at a concentration of 50 μM and 4 μl of the DMSO solution was added to the cell suspension (4 ml). 1 ml of this solution was added to a further 1 ml of cell solution in a neighbouring tube, giving a compound half that of the initial dilution. The dilutions were continued in the same manner affording seven samples at different concentrations. One cell solution was left compound free as a control. Treated cells (200 μl) were pipetted in triplicate into a 96-well plate and incubated at 37° C. in a 5% CO2 in air atmosphere for 5 days. After this time, the plate was removed from the incubator and a solution of (3-(4,5-dimethylthiazol-2-yl)-2,5-diphenyltetrazolium bromide (MTT) (50 μl, 3 mg/ml in phosphate buffered saline (PBS)) was added to each well. After a further 3 hour incubation period under the same conditions, the medium was carefully removed from each well by suction and the resulting formazan precipitate was dissolved in DMSO (200 μl). The optical density of each well was then read (540 nm) using a Titretek Multiscan MCC/340 platereader. After processing and analysis through the application of an ‘in-house’ software package, the results obtained enabled the calculation of the drug dose required to inhibit cellular growth by 50% (GI50 or IC50 value).

The subject of series [2] is tubulin. Kind of series: Test (b): inhibition of tubulin assembly. The format is biochemical. The conditions noted are these: absorbance at 350 nm over 20 minutes, 37° C.; read-out: IC50 - Assay (b), concentration for 50% inhibition of tubulin assembly. The protocol:
The compounds of the present invention were also tested in assay (b) for their ability to inhibit tubulin assembly generally as described in McGown and Fox, “Structural and biochemical comparison of the anti-mitotic agents colchicine, combretastatin A-4 and amphethinile” Anti-Cancer Drug Design, 3, 249, 1989.
Samples were prepared in quartz cuvettes at 0° C. and contained 2-morpholinoethanesulfonic acid (MES) buffer (740 μl, 0.1 M MES, 1 mM ethylene glycol tetraacetic acid (EGTA), 0.5 mM MgCl2, pH 6.6), a compound of the present invention (10 μl, 1 mM in DMSO), tubulin (150 μl, 1/4 dilution of neat tubulin in MES buffer) and GTP (100 μl, 10 mM). The overall concentration of the compound in solution was therefore 10 μM. The cell was mixed well, dried and immediately placed in a Varian Cary 1 UV/Visible spectrophotometer, preheated to 37° C., along with a control sample containing MES buffer (740 μl), guanosine triphosphate (GTP) (100 μl, 10 mM), tubulin (150 μl, concentration as before) and DMSO (10 μl). The absorbance at 350 nm was recorded over a period of 20 minutes. The results were compared with the untreated control experiment to assess the relative degree of change in optical density. If assembly was less than 50% of that of the control, the experiment was repeated using decreasing concentrations (from 1 mM) of the compound in order to determine the activity.

The nature of series [3]: Maximum tolerated dose by dose escalation in mice. Conditions: mouse, in vivo, ip, single intraperitoneal dose, read-out: dose believed to be the maximum tolerated dose.
Series [4] relates to DLD-1 tumours (colon carcinomas). Kind of series: Test (c): in vivo functional vasculature study with Hoechst 33342. Also noted: species or system mice. The conditions noted are these: single intraperitoneal dose at believed maximum tolerated dose. The protocol: The compounds of the present invention were also tested in in vivo functional vasculature studies using the fluorescent DNA-binding compound Hoechst 33342 (H33342)
Twenty-eight mice were used for test (c). The tumours used were colon carcinomas (DLD-1). Once the tumours reached a suitable size, mice were randomised and assigned into 10 groups with one control group and 3 groups for each compound to be tested (referred to as a “drug group”). Mice in a drug group were treated intraperitoneally with a single dose of a compound of the present invention at a dose believed to be the maximum tolerated dose for each compound being tested (the maximum tolerated dose being measured by dosing mice with increasing amounts of compound (normally doubling the previous dose) until it is either fatal or the animal suffers substantial weight loss or has become distressed). The dose for the compound of Example 1 was 60 mg/kg, for the compound of Example 2 was 120 mg/kg and for the compound of Example 3 was 270 mg/kg. The control group was untreated. H33342 was then injected intravenously at 40 mg/kg to the treated mice 4, 8 and 24 hours after administration of a compound of the present invention and after 24 hours to the untreated control mice. After one minute, each mouse was killed by cervical dislocation and the tumours were removed. Following this procedure the H33342 is confined to the nuclei of cells adjacent to the blood vessels. The tumours were wrapped in aluminium foil and immediately snap-frozen in liquid nitrogen and then stored at −80° C. until required for sectioning. For assessment of tumour vasculature, 10 μm-thick sections were cut using a cryostat (Leica, CM 1100, Scientific Laboratory Supplies, UK) with intervals between sections of 200 μm. The sections were placed on glass slides and allowed to air dry before viewing under a light microscope using UV illumination. Functional vascular volume was quantified using a point scoring system as described previously (Cowen S. E., Bibby M. C., Double J. A., Characterisation of the vasculature within a murine adenocarcinoma growing in different sites to evaluate the potential of vascular therapies, Acta Oncologica, 1995, 34, 357-60). Using a graticule with 22×16 grids, points crossing areas of fluorescence were counted as positive points. The total number of positive points was used to calculate the percentage of functional vasculature. Five sections per tumour and 5 fields per section were examined for tumours.
The results of test (c) are shown in FIG. 1, which is a graph showing relative percentage of control functional vasculature in the DLD-1 tumours after treatment with the compounds of Examples 1, 2 and 3 at doses of 60, 120 and 270 mg/kg respectively. Each point plotted in the graph of FIG. 1 represents the mean percentage of control functional vasculature for each time-point.

Consider `COc1ccc2c(c1OP(=O)([O][Na+])[O][Na+])COCc1cc(OC)c(OC)c(OC)c1-2` [Example 4, 3,9,10,11-Tetramethoxy-5,7-dihydrodibenzo[c,e]oxepin-4-yl disodium phosphate], for which the IC50 in series [1] came out at 0.23 nM; in series [2], 700 nM.

Turning to `COc1cc2c(c(OC)c1OC)-c1cc3c(cc1COC2)OCO3` [Example 2, 5,7-Dihydro-1,2,3-trimethoxybenzo[d][1,3]dioxolo[4,5-h][2]benzoxepin], the MTD in series [3] was 120 mg/kg. Besides, the “functional vasculature in DLD-1 tumours compared to control tumours” value was “no difference” in series [4] (4 hours post-treatment), “no difference” in series [4] (8 hours post-treatment) and “significant functional vasculature decrease” in series [4] (24 hours post-treatment).

On to `COc1ccc2c(c1N)COCc1cc(OC)c(OC)c(OC)c1-2` [Example 9, 3,9,10,11-Tetramethoxy-5,7-dihydrodibenzo[c,e]oxepin-4-amine], for which the values for the IC50 in series [1] and in series [2] were 2 nM and 900 nM, respectively.

On to `COc1ccc2c(c1OS(=O)(=O)C(F)(F)F)COCc1cc(OC)c(OC)c(OC)c1-2` [Example 7, 3,9,10,11-Tetramethoxy-5,7-dihydrodibenzo[c,e]oxepin-4-yl trifluoromethanesulfonate], for which the melting point was found to be 164 °C.

Regarding `COc1cc2c(c(OC)c1OC)-c1ccc([N+](=O)[O-])cc1COC2` [Example 5, 1,2,3-Trimethoxy-9-nitro-5,7-dihydrodibenzo[c,e]oxepine], the melting point was determined as 161 °C.

In turn, `COc1cc2c(c(OC)c1OC)-c1ccc(N)cc1COC2` [Example 6, 9,10,11-Trimethoxy-5,7-dihydrodibenzo[c,e]oxepin-3-amine] gave a melting point of 145 °C.

Consider `COc1ccc2c(c1O)COCc1cc(OC)c(OC)c(OC)c1-2` [Example 3, 3,9,10,11-Tetramethoxy-5,7-dihydrodibenzo[c,e]oxepin-4-ol], for which the MTD in series [3] amounted to 270 mg/kg. Moreover, the figures for the IC50 in series [1] and in series [2] were 33.9 nM and 800 nM, respectively. The figures for the “functional vasculature in DLD-1 tumours compared to control tumours” value in series [4] (4 hours post-treatment), in series [4] (8 hours post-treatment) and in series [4] (24 hours post-treatment) were “dramatically decreased”, “restored back to above control level” and “significantly decreased”, respectively.

For the molecule `COc1ccc2c(c1)COCc1cc(OC)c(OC)c(OC)c1-2` [Example 1, 1,2,3,9-Tetramethoxy-5,7-dihydrodibenzo[c,e]oxepine], the MTD in series [3] was determined as 60 mg/kg. The IC50 in series [1] amounted to 110 nM; in series [2] it was 5700 nM. Moreover, the “functional vasculature in DLD-1 tumours compared to control tumours” value in series [4] (8 hours post-treatment) and in series [4] (24 hours post-treatment) was “significant decrease” in each case.
